We go through 1 compound from patent US7910588B2, “5-HT7 receptor antagonists” (Eli Lilly and Company, priority 2007, dated 2011).

One assay addresses T1, 5-HT7 receptor (Homo sapiens, UniProt P34969).
T1 construct: expressed in transfected cells
The assay is described as follows: Functional antagonist assay: measurement of cAMP formation. It is filed as cell-based. The procedure:
For cAMP functional assays, the 5-HT7-expressing cells from above are grown in 150 cm^2 flasks and processed essentially as follows. The media is aspirated from the flasks and cells are washed with 1 mL PBS. The cells are released from the flask surface using enzyme free cell dissociation solution (Specialty media (www.chemicon.com) CAT#S-004-B) and resuspended in complete media. A sample of the cells is counted and the remainder is centrifuged as above for 3 min. The resulting cell pellet is resuspended in PBS at a concentration of 1×10^6 cells per mL and used directly in the cAMP assay as described.
The 5-HT7 receptor is functionally coupled to a G-protein as measured by the ability of serotonin and serotonergic drugs to stimulate cAMP production in CHO cells transfected with the 5-HT7 receptor. (Ruat, et al., Proceedings of the National Academy of Sciences (USA), 90:8547-8551, 1993.) Accordingly, functional receptor activity can be measured by measuring adenylate cyclase activity using a commercially available cell-based, homogeneous, time resolved fluorescence assay kit, as for example the kit produced by Cisbio-US, Inc. (Bedford, Mass.). Essentially, and using the protocol and reagents provided by the manufacturer, approximately 20,000 human 5-HT7 receptor-expressing AV-12 cells (as described above) are used with test compound dose concentrations in the range described for the binding assay. […] A cAMP standard curve is also run in every experiment. After the assay plates are read in an Envision™ instrument (Perkin-Elmer, Wellesley Mass.), the data are normalized to the standard curve and converted to percent inhibition for data analysis as described above for the receptor binding assay results. The Kb (nM) is calculated as a measure of the antagonist potency of the compound. Preferred compounds are those having percent inhibition >75%. Still other preferred compounds are those having Kb<50 nM.

A further assay has as its target alpha 2 adrenergic. The assay is described as follows: Radioligand binding assay, alpha 2 adrenergic. The procedure: (§1) [^3H] […] The reactions are incubated at room temperature for 3 hr. and then counted in a Trilux Microbeta™ scintillation counter to detect receptor-bound radioligand. Binding data are analyzed by computer-assisted 4 parameter fit analysis (ID Business Solutions Ltd, Guildford, Surrey, UK). […]
(§2) Affinity for other serotonin receptor subtypes as well as for alpha 1 & 2 adrenergic receptors can readily be determined by modification of the above described radioligand receptor binding assay using membranes derived from cells stably expressing the desired receptor subtype including the 5-HT1A, 5-HT1B, and 5-HT1D subtypes, as well as the 5-HT2A, 5-HT2B, 5-HT2C, 5-HT4, 5-HT7, and 5-HT6 receptor subtypes. […]

For a further assay, the target named is T2, 5-HT6 (Homo sapiens, UniProt P50406).
T2 construct: expressed in transfected cells
T2 sequence (P50406 whole entry, species assumed): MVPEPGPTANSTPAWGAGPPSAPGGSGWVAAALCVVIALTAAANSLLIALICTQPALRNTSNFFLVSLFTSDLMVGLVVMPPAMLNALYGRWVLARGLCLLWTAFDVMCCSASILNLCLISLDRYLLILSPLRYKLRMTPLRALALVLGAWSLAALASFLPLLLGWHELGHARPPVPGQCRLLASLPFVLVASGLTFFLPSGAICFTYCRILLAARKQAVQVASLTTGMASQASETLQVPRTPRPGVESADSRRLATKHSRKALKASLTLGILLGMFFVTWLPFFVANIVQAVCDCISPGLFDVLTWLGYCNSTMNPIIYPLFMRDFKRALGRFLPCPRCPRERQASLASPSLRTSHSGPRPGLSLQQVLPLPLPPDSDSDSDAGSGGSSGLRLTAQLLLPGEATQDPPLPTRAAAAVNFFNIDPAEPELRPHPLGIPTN
In words: Radioligand binding assay, 5-HT6. The procedure: as §1, §2

The target of the next assay is alpha 1 adrenergic. The assay is described as follows: Radioligand binding assay, alpha 1 adrenergic. The procedure:
as §1, §2

In a further assay the target is T3, 5-HT2A (Homo sapiens, UniProt P28223).
T3 construct: expressed in transfected cells
T3 sequence (P28223 whole entry, species assumed): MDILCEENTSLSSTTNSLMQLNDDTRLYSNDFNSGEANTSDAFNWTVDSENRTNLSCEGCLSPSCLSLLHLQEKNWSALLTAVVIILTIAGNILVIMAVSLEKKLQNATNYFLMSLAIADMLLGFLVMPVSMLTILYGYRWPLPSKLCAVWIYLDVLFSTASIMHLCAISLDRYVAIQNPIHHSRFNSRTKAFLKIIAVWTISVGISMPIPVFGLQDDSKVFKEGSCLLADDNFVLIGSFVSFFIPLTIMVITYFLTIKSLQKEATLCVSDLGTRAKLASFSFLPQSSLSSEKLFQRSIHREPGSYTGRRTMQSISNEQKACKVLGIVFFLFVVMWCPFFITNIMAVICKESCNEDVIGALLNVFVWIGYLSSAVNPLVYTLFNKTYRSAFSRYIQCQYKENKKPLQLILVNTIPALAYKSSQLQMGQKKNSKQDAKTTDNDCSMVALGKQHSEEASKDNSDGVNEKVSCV
The assay is described as follows: Radioligand binding assay, 5-HT2A. The procedure: as §1, §2

For the next assay, the target named is T4, 5-HT1B (Homo sapiens, UniProt P28222).
T4 construct: expressed in transfected cells
T4 sequence (P28222 whole entry, species assumed): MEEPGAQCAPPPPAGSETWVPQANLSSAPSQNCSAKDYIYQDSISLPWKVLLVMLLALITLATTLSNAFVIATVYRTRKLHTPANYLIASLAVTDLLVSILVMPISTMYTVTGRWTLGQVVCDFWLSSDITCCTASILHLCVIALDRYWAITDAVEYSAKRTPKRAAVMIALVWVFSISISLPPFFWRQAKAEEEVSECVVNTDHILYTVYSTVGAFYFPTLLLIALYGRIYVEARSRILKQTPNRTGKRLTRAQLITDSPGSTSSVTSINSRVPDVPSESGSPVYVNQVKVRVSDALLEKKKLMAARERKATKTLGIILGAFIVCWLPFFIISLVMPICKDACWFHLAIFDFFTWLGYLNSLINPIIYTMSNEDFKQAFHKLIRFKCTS
The assay is described as follows: Radioligand binding assay, 5-HT1B. The procedure: as §1, §2

For a further assay, the target named is T5, 5-HT2C (Homo sapiens, UniProt P28335).
T5 construct: expressed in transfected cells
T5 sequence (P28335 33-458): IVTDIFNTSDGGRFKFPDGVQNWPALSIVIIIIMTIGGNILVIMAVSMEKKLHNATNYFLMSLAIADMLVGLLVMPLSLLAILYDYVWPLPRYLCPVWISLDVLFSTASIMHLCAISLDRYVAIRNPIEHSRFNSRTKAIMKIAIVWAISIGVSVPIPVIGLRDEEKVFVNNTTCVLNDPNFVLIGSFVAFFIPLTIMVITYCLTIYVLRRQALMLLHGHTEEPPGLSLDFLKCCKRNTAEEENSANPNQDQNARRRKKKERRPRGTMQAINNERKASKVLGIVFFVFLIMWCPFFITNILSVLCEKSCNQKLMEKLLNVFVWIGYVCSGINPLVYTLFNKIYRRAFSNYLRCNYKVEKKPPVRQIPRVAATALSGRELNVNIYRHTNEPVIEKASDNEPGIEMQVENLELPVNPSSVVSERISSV
In words: Radioligand binding assay, 5-HT2C. The procedure:
as §1, §2

T1 sequence (P34969 whole entry): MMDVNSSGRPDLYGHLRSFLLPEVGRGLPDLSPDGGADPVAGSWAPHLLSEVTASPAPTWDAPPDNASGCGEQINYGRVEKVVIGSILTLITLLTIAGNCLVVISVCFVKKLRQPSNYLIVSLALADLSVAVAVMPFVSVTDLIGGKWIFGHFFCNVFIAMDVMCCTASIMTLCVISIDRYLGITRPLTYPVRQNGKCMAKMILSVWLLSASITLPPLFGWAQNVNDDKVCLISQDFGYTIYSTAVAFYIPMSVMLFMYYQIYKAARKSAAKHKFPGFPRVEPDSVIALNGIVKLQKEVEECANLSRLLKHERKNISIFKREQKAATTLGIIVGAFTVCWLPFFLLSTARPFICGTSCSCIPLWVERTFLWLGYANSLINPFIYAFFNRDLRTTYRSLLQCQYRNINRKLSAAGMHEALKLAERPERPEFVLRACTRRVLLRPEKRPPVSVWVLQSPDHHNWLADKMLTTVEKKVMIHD

For the compound `CCn1ncc(CN2CCN(c3cccnc3N3CCC(O)CC3)CC2)c1C.Cl` [Example 1, 3′-[4-(1-Ethyl-5-methyl-1H-pyrazol-4-ylmethyl)-piperazin-1-yl]-3,4,5,6-tetrahydro-2H-[1,2]bipyridinyl-4-ol hydrochloride], the Kb (as a rule, the affinity of an antagonist, worked out from how it opposes an agonist) at 5-HT7 receptor (antagonist potency, cAMP formation in 5-HT7 receptor-expressing AV-12 cells) was roughly 2.97 nM. Moreover, the antagonist character result on 5-HT7 receptor (cAMP formation in 5-HT7 receptor-expressing AV-12 cells) is “full antagonist”. Further, on 5-HT7 receptor (percent inhibition of cAMP formation in 5-HT7 receptor-expressing AV-12 cells), the inhibition result is listed as “about 108%”. For the same compound, the Ki (commonly the dissociation constant of the complex between target and ligand, obtained from inhibition or displacement) on alpha 2 adrenergic is greater than 2670 nM; at 5-HT6 it was greater than 5830 nM; at alpha 1 adrenergic it was 1380 nM; on 5-HT2A it was greater than 7470 nM; on 5-HT1B it was greater than 3580 nM; on 5-HT2C it was greater than 8360 nM.
